Measured values from US20230372318A1, “METHODS FOR TREATING A SUBJECT HAVING MULTIPLE SYSTEM ATROPHY” (Theravance Biopharma R&D IP, LLC, priority 2022, published 2023).

Assays:
[1] = test system: plasma protein; assay: Plasma protein binding, human; format: in vitro ADME
[2] = molecular target: T1, rat native DAT (Rattus norvegicus, UniProt P23977); assay: [3H]-DA uptake inhibition, rat striatal synaptosomes; format: biochemical; settings: mean
T1 construct: human recombinant and rat native monoamine transporters; from tissue; host or cells: rat striatum (synaptosomes)
T1 sequence (P23977 whole entry): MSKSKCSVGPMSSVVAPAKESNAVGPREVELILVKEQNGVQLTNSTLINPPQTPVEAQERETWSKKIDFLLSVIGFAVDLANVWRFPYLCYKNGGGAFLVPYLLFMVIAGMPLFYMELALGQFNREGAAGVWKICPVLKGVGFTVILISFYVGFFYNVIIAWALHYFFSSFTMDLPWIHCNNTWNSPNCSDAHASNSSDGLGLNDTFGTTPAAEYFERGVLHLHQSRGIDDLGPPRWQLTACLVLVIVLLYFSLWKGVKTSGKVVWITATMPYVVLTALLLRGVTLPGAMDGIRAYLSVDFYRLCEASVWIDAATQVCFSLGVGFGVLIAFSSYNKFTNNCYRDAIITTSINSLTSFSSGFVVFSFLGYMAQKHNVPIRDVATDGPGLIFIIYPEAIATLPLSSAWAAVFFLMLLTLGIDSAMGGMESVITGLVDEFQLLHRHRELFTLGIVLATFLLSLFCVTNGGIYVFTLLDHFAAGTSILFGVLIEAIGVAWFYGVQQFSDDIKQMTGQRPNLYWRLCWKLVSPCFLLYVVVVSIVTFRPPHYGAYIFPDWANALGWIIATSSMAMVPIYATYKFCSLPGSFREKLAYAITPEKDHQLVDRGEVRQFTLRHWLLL
From the text: (§1) The in vitro pharmacology of ampreloxetine at human recombinant and rat native monoamine transporters was characterized as described in Smith et al., Inter. J. Neuropsychopharmcol. (2015) 1-11; and Tsuruda et al., J. Pharmacol. Toxicol. Meth. (2010) 61:192-204. See also, e.g., U.S. Pat. Nos. 8,304,432 B2 and 8,304,433 B2. Radioligands were sourced commercially (Perkin Elmer LifeSciences or GE Healthcare Life Sciences).
(§2) Briefly, membranes prepared from HEK293 (Human Embryonic Kidney 293) or CHO-K1 (Chinese Hamster Ovary-K1) cells stably transfected with human recombinant SERT (HEK293-hSERT), NET (HEK293-hNET), or DAT (CHO-K1-hDAT) were incubated for 1 hr at 22° C. in the absence, or presence, of 4-[2-(2,4,6-trifluorophenoxymethyl)phenyl]piperidine and [^3H]-citalopram (1.0 nM) for SERT, [^3H]-nisoxetine (2.0 nM) for NET, and [^3H]-WIN35428 (3.0 nM) for DAT in 50 mM Tris-HCl, 120 mM NaCl, 5 mM KCl, 0.025% BSA, 100 μM ascorbic acid, pH 7.4. Rat cortical membrane preparations were incubated with [^3H]-citalopram (2.0 nM) for SERT or [^3H]-nisoxetine (4.0 nM) for NET for 1 hr at 22° C. […] Binding and uptake assays were terminated by rapid filtration and radioactivity determined by liquid scintillation spectroscopy. […] Selectivity for NET (rounded to one significant figure) was determined as follows: […]

[3] = molecular target: T2, cytochrome P450 1A2 (CYP1A2) (Homo sapiens, UniProt P05177); settings: healthy subjects, cited from earlier work
T2 construct: from tissue; host or cells: in vivo, healthy human subjects (as reported in Kanodia et al. 2021)
T2 sequence (P05177 whole entry): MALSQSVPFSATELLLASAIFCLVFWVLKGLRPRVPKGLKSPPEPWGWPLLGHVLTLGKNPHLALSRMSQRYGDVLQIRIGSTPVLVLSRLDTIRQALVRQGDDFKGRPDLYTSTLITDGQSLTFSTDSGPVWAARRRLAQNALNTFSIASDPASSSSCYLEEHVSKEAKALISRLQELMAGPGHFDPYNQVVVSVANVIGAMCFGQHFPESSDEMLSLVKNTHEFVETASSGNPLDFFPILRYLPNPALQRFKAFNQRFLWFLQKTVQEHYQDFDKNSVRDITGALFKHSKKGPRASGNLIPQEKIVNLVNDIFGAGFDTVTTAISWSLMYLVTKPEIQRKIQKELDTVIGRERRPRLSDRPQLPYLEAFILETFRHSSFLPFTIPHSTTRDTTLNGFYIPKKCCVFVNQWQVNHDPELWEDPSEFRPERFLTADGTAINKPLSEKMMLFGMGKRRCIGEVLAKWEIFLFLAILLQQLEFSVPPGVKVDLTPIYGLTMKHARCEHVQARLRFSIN

[4] = molecular target: T3, rat native SERT (Rattus norvegicus, UniProt P31652); assay: Radioligand binding, [3H]-citalopram, rat cortical membranes; settings: mean (95% confidence intervals)
T3 construct: human recombinant and rat native monoamine transporters; from tissue; host or cells: rat cerebral cortex (membranes; synaptosomes)
T3 sequence (P31652 whole entry): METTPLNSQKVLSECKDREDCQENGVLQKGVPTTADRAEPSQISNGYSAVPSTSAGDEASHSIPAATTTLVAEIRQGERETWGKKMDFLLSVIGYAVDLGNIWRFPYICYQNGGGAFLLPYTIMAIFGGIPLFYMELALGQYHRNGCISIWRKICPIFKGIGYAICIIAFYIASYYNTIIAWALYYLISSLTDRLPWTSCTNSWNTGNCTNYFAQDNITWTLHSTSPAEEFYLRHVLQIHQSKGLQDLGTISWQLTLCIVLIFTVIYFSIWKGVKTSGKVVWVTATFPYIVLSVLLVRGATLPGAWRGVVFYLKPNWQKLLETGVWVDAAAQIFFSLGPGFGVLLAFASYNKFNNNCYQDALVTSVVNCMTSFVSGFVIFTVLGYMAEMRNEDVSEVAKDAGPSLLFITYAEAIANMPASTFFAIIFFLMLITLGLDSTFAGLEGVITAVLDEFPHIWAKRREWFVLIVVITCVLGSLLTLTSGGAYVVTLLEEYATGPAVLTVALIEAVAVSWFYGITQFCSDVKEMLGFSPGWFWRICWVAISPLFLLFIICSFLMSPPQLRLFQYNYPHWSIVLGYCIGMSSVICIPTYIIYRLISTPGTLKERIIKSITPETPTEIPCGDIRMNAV
From the text: as §1, §2

## Fc1cc(F)c(OCc2ccccc2C2CCNCC2)c(F)c1 [Ampreloxetine, 4-[2-(2,4,6-trifluorophenoxymethyl)phenyl]piperidine]
[1]
  Plasma protein binding: 79.1%
[2]
  Neurotransmitter Uptake Inhibition: pIC50, DAT: 6.9
[3]; CYP1A2
  Enzyme responsible for metabolism: primary enzyme responsible for ampreloxetine metabolism
[3]
  Fraction eliminated through metabolism: > 90%
[4]
  Transporter Binding: pKi, SERT: 8.5 (8.3, 8.6)
